Results as given in patent US20100137208A1, “INTRATUMORALLY ADMINISTERED LACTOFERRIN IN THE TREATMENT OF MALIGNANTNEOPLASMS AND OTHER HYPERPROLIFERATIVE DISEASES” (priority 2002, published 2010).

How the values were obtained:
[1] = system: murine squamous carcinoma cell line (SCCVII); assay: SCCVII floor-of-mouth tumor growth, docetaxel with or without oral rhLF; type: in vivo, C3H mice; settings: docetaxel i.v. bolus 31.3 mg/kg Day 8, in combination rhLF 200 mg/kg oral days 5 to 12
Experimental: A murine squamous carcinoma cell line (SCCVII) was injected into the floor of the mouth through the neck skin of immunocompetent C3H mice (Day 0) as described in Example 7. On Day 5 after initial implantation, tumors were measured for the baseline, then treated with either oral placebo alone (once daily from days 5 to 12; 6 animals), placebo and docetaxel (i.v. bolus of 31.3 mg/kg docetaxel on Day 8; 9 animals), or docetaxel plus oral rhLF (200 mg/kg, administered once daily by gavage from days 5 to 12; 9 animals). Animals were sacrificed on Day 14 and tumors measured. Docetaxel alone caused an inhibition of tumor growth relative to placebo and the combination of rhLF and docetaxel induced a further growth inhibition.

[2] = system: murine squamous carcinoma cell line (SCCVII); assay: SCCVII floor-of-mouth tumor growth, oral rhLF and/or cisplatin; type: in vivo, C3H mice; settings: in combination rhLF 200 mg/Kg oral days 5-12
Experimental: A murine squamous carcinoma cell line (SCCVII) was injected into the floor of the mouth through the neck skin of immunocompetent C3H mice (Day 0). […] Tumors were measured in three dimensions with calipers.
Tumor-bearing mice were randomized into a control group and seven groups receiving rhLF and/or cisplatin. RhLF (4 mg; 200 mg/Kg) was administered once daily by oral gavage for 8 days on days 5 through 12. Cisplatin was administered as a single dose of 5 mg/Kg given intraperitoneally either at the start of rhLF (day 5), in the middle (day 8) or at the end (day 12) of rhLF therapy. Animals were sacrificed on day 12 post-implantation and the residual tumor masses were measured and processed for later additional analyses.
A murine squamous carcinoma cell line (SCCVII) was injected into the floor of the mouth through the neck skin of immunocompetent C3H mice (Day 0) as described in Example 6. On Day 5 days after initial implantation, tumors were measured for the baseline, then treated with either cisplatin (Day 8, i.p., 5 mg/kg) alone or cisplatin plus three doses of oral rhLF (daily by gavage for 7-8 days on days 5 through 11/12). Animals were sacrificed on Day 11/12 and tumors measured.

CC(=O)O[C@@]12CO[C@@H]1C[C@H](O)[C@@]1(C)C(=O)[C@H](O)C3=C(C)[C@@H](OC(=O)[C@H](O)[C@@H](NC(=O)OC(C)(C)C)c4ccccc4)C[C@@](O)([C@@H](OC(=O)c4ccccc4)[C@H]21)C3(C)C [Docetaxel]
TGI (%) Relative to Placebo ([1]; Day 14): 59%
Tumor Growth ([1]; measured Day 14): 2,103

N.N.[Cl][Pt][Cl] [CP, Cisplatin]
TGI (%) Relative to Placebo ([2]; cisplatin 5 mg/Kg i.p. on day 5): 68%
TGI (%) Relative to Placebo ([2]; cisplatin 5 mg/Kg i.p. on day 8): 6%
TGI (%) Relative to Placebo ([2]; cisplatin 5 mg/Kg i.p. on day 12): 42%
TGI (%) Relative to Placebo ([2]; pooled cisplatin schedules (day 5, 8, 12)): 38%
